Read-outs that look alike come from different tables or passages of the source. Bridge positions count the residues as written; N and C are the ends. Square brackets hold non-standard residues; d marks the D form. Ends that are not written are not given here. Peptide text beside a SMILES is read from it. * marks the point of attachment. X2 = O=C(O)CN1CCN(CC(=O)O)CCN(CC(=O)NCCN2C(=O)CC(*)C2=O)CC1; Lys(N3) = [N-]=[N+]=NCCCC[C@H](N)C(=O)O; Pra = C#CC[C@H](N)C(=O)O
Experiments:
[1] = target: T1, Human αvβ6 (Homo sapiens, UniProt P06756+P18564); test: competitive integrin binding assay (isoDGR-peroxidase probe), αvβ6-coated plates; conditions: competition with isoDGR-peroxidase on αvβ6-coated plates; mean ± SE of n independent experiments (n in the column beside)
T1 construct: purchased Bio-Techne
Description: Peptides were prepared by chemical synthesis; their identity and purity were checked by mass spectrometry (MS) and reverse-phase HPLC analysis. The affinity of peptides for αvβ6-coated plates was determined by competitive binding assay using an isoDGR peptide (an RGD mimetic) labeled with peroxidase as a probe for the integrin-binding site. Cell adhesion assays were carried out as described previously.
Figure S2. Competitive binding of isoDGR-peroxidase conjugate with peptide 5, 5a and 2a to αvβ6-coated microtiter plates.
The competitive binding assay was performed as previously described, using an isoDGR peptide (an RGD mimetic) labeled with peroxidase (isoDGR-HRP) as a probe for the integrin-binding site. A representative experiment (mean ± SE of 3-4 technical replicates) is shown. The resulting Ki values are shown (mean ± SE of n=3-7 independent experiments, see also Table […]
(1 picture or pasted object on this page, not shown here)
Figure S10. Biochemical characterization of 5a- and 2a-NOTA conjugates. […]
C) Competitive binding of isoDGR-HRP to αvβ6-coated microtiter plates with peptides and peptide-NOTA conjugates, as measured by competitive ELISA. […]
D) Stability of 5a-NOTA after labeling with 18F, as determined by RP-HPLC analysis using an […]

[2] = target: T2, Human αvβ8 (Homo sapiens, UniProt P06756+P26012); design: method as in PMID 31755501; conditions: competition with isoDGR-peroxidase; mean ± SE of n independent experiments; ref [25]; read-out: Ki (competitive integrin binding assay) Human αvβ8; cited from earlier work
T2 construct: purchased Bio-Techne

[3] = target: T1, Human αvβ6; design: method as in PMID 31755501; conditions: competition with isoDGR-peroxidase on αvβ6-coated plates; mean ± SE of n independent experiments; ref [25]; read-out: Ki (competitive integrin binding assay) Human αvβ6; cited from earlier work

T1 sequence (P06756 31-992 limits assumed): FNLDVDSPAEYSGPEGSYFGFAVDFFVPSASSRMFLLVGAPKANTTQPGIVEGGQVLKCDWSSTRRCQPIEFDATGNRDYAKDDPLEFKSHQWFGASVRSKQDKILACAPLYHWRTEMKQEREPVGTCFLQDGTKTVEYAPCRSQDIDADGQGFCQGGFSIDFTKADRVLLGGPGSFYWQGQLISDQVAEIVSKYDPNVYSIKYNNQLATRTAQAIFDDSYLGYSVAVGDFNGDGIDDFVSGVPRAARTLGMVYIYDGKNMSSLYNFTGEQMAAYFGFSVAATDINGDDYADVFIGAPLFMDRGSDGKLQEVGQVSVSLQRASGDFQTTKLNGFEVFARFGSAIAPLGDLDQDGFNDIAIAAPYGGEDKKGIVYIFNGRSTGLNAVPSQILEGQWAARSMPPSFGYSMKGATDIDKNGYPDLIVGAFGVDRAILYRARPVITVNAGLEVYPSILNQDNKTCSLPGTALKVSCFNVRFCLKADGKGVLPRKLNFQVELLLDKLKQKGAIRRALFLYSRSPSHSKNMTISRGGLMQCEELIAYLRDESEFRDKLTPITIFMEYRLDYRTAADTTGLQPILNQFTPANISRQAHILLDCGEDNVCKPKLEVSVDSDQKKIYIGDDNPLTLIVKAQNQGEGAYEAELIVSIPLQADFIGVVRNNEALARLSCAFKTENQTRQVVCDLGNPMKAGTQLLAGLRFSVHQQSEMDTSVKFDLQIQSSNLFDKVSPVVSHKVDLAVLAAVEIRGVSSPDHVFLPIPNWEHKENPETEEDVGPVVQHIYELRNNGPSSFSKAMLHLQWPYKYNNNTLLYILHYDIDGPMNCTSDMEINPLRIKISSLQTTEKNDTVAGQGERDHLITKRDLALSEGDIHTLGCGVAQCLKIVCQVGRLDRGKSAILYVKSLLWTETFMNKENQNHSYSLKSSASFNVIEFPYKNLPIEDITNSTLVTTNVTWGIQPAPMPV
T1 sequence (P18564 22-707 limits assumed): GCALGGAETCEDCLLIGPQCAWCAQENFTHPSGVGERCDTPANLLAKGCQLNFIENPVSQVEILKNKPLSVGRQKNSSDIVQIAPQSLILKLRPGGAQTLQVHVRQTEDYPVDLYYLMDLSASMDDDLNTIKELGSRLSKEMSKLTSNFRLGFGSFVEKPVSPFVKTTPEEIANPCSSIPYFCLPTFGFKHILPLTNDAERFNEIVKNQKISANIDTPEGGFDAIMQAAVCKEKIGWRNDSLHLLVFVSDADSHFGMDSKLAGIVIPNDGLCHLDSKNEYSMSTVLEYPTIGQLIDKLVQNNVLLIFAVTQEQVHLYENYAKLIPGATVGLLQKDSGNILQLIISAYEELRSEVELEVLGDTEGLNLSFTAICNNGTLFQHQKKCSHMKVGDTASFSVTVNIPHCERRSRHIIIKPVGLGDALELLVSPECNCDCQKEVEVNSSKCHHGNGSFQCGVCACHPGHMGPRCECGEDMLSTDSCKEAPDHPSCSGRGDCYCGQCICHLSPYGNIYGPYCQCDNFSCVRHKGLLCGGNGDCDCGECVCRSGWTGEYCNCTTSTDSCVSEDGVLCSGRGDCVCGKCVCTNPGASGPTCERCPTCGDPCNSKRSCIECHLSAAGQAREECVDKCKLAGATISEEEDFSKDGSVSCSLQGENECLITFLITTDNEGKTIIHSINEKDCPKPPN
T2 sequence (P06756 31-992 limits assumed): as the sequence (P06756 31-992 limits assumed) above
T2 sequence (P26012 43-684 limits assumed): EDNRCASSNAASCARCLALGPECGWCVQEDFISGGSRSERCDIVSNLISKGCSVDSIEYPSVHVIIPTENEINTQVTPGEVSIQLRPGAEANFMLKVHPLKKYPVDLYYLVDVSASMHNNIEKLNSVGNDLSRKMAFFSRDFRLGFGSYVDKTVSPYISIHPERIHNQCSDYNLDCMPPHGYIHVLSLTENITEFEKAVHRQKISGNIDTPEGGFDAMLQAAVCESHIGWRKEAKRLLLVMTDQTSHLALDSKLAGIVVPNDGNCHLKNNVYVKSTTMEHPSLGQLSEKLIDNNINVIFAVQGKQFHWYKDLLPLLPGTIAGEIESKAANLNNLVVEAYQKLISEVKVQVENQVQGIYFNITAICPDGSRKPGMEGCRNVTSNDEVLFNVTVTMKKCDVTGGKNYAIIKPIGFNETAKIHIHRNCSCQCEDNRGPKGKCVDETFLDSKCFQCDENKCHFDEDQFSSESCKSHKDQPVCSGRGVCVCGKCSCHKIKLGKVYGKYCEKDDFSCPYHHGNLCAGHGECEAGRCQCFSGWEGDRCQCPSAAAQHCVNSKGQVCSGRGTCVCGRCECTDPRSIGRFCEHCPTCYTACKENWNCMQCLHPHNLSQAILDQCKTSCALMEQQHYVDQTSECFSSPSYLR

Ki [1] [nM] | Molecule | Ki [2] [µM] | Ki [3] [nM]
> 200 | CIRLDLELINFQSDLQHELLKTRLRG [5a-Scr] | – | –
– | CFETLRGEERILSILRHQNLLKELQD-NH2 [2a] | > 50 | > 50000
> 1000 | CC[C@H](C)[C@H](NC(=O)[C@H](CCCNC(=N)N)NC(=O)[C@H](CCC(=O)O)NC(=O)[C@H](CCC(=O)O)NC(=O)CNC(=O)[C@H](CCCNC(=N)N)NC(=O)[C@H](CC(C)C)NC(=O)[C@@H](NC(=O)[C@H](CCC(=O)O)NC(=O)[C@H](Cc1ccccc1)NC(=O)[C@@H](N)CSC1CC(=O)N(CCNC(=O)CN2CCN(CC(=O)O)CCN(CC(=O)O)CC2)C1=O)[C@@H](C)O)C(=O)N[C@@H](CC(C)C)C(=O)N[C@@H](CO)C(=O)N[C@H](C(=O)N[C@@H](CC(C)C)C(=O)N[C@@H](CCCNC(=N)N)C(=O)N[C@@H](Cc1c[nH]cn1)C(=O)N[C@@H](CCC(N)=O)C(=O)N[C@@H](CC(N)=O)C(=O)N[C@@H](CC(C)C)C(=O)N[C@@H](CC(C)C)C(=O)N[C@@H](CCCCN)C(=O)N[C@@H](CCC(=O)O)C(=O)N[C@@H](CC(C)C)C(=O)N[C@@H](CCC(N)=O)C(=O)N[C@@H](CC(=O)O)C(N)=O)[C@@H](C)CC (some centres unmarked) [2a-NOTA] (H-C(X2)FETLRGEERILSILRHQNLLKELQD-NH2) | – | –
– | ac-FETLRGDLRILSILRX1QNLX2KELQD-CONH2 (sidechain bridge or staple) (Ac-FETLRGDLRILSILR[Pra]QNL[Lys(N3)]KELQD-NH2; triazole 16-20; not fully specified) [compound 5, chromogranin A-derived peptide with RGDL motif and triazole-stapled alpha-helix, previously developed by the authors] | – | 0.6 ± 0.1

Source: paper PMC9760430, “A stapled chromogranin A-derived peptide homes in on tumors that express αvβ6 or αvβ8 integrins” (International Journal of Biological Sciences, 2023)
